Laboratory results reported in PubChem BioAssay AID2060500 (Molecular Pharmacology Branch, DTP, NCI, 2025).

Tested on: 596521-263-R-J1-PDC complex spheroids, viability % of control
Assay: Anticancer human tumor 596521-263-R-J1-PDC patient-derived soft tissue sarcoma cell line growth inhibition [GQUAD]
Conditions: for IC50: curve of first compound; for viability, T/C: stronger effect = lower value
Excerpt: DNA G-quadruplex Stabilizer Agents in Combinations in Complex Spheroids
A high-throughput screen of multi-cell type tumor spheroids was designed to identify active combinations of DNA G-quadruplex stabilizer agents and targeted small molecules. Complex spheroids include a stromal component modeled by human endothelial cells (HUVEC) and fibroblasts modeled by human mesenchymal stem cells (MSCs). The concentration ranges selected for each drug and investigational agent were based upon clinically achievable concentrations if the clinical Cmax of the agent was known.
Compounds. The drugs and investigational agents: pidnarulex (CX-5461; NSC782164), APTO-253 (NSC789042), BRACO-19 (NSC847499), peposertib (NSC802822), ceralasertib (NSC780249), elimusertib (NSC800525), camonsertib (NSC841442), AZD-1390 (NSC803789), olaparib (NSC753686), talazoparib (NSC767125), ART-558 (NSC835418), sotorasib (NSC818433), MRTX-1133 (NSC836407), SN-38 (NSC673596), topotecan (NSC609699), etoposide (NSC141540), doxorubicin (NSC123127), gemcitabine (NSC613327), 5-fluorouracil (NSC19893), paclitaxel (NSC125973), vemurafenib (NSC761431), panobinostat (NSC761190), R-306465 (JNJ-16241199; NSC773264), adavosertib (NSC754352), TP-3654 (NSC805149), carboplatin (NSC241240), KSQ-4279 (NSC840948), and staurosporine (NSC755774) were obtained from the National Cancer Institute (NCI) Developmental Therapeutics Program Chemical Repository (34). The FDA-approved anticancer drug set is available from the NCI Developmental Therapeutics Program. […] The stock solutions were prepared in dimethyl sulfoxide (DMSO, Sigma-Aldrich, St. Louis, MO, cat. D2650) at 800-fold the tested concentration and stored at -70 degrees C prior to their use. All drugs and investigational agents were tested over a range starting from a high concentration at or near the clinical Cmax and decreasing in half-log increments. If the clinical Cmax for an agent had not been determined, the highest concentration tested was 10 microM.
2.3 Cell Culture. All cells were maintained in an incubator at 37 degrees C and 5% CO2 with 95% humidity. The PDC lines were cultured according to standard operating procedures established by the NCI PDMR. All PDCs were thawed and cultured in Matrigel-coated flasks prepared with a working solution of 1X Ham's F-12 nutrient mix, without supplementation (Invitrogen, cat. 11765054), 100 U/mL penicillin-streptomycin (Invitrogen, cat. 15140122), and 2.5% Matrigel (Corning Inc., cat. 354248) for the first three passages. The 857933-349-R-J2-PDC line was cultured in 6C/Colon 1B media, which includes advanced DMEM/F-12 (Thermo Fisher Scientific, cat. 12634028), 10 mM HEPES (Thermo Fisher Scientific, cat. 15630080), 1X GlutaMAX supplement (Thermo Fisher Scientific, cat. 35050061), 0.1 mg/mL primocin (InvivoGen, cat. ant-pm-2), 10% defined fetal bovine serum, heat inactivated (HyClone Laboratories Inc., cat. SH30070.03HI), 50% L-WRN conditioned media (ATCC, cat. CRL-3276), 1.25 mM N-Acetyl-L-cysteine (Sigma-Aldrich, cat. A9165), 10 mM nicotinamide (Sigma-Aldrich, cat. N0636), 1X B-27 supplement (Thermo Fisher Scientific, cat. 17504044), 1X N-2 supplement (Thermo Fisher Scientific, cat. 17502048), 10 microM Y-27632 dihydrochloride (Tocris Bioscience, cat. 1254), and 50 ng/mL human EGF recombinant protein (Thermo Fisher Scientific, cat. PHG0311). The 485176-168-R4-J1-PDC line was cultured in Panc media, which includes all 6C/Colon 1B media components plus 100 ng/mL human FGF-10 (Thermo Fisher Scientific, cat. 100-26), 500 nM SB-431542 (Selleckchem, cat. S1067), and gastrin (Tocris, cat. 3006).
[…]

[1] = second compound 0.0316 µM, first compound 0.0316 µM
[2] = second compound 0.0316 µM, first compound 0.1 µM
[3] = second compound 0.0316 µM, first compound 0.316 µM
[4] = second compound 0.0316 µM, first compound 1 µM
[5] = second compound 0.0316 µM, first compound 3.16 µM
[6] = second compound 0.0316 µM, first compound 10 µM
[7] = second compound 0.1 µM, first compound 0.0316 µM
[8] = second compound 0.1 µM, first compound 0.1 µM
[9] = second compound 0.1 µM, first compound 0.316 µM
[10] = second compound 0.1 µM, first compound 1 µM
[11] = second compound 0.1 µM, first compound 3.16 µM
[12] = second compound 0.1 µM, first compound 10 µM
[13] = second compound 0.316 µM, first compound 0.0316 µM
[14] = second compound 0.316 µM, first compound 0.1 µM
[15] = second compound 0.316 µM, first compound 0.316 µM
[16] = second compound 0.316 µM, first compound 1 µM
[17] = second compound 0.316 µM, first compound 3.16 µM
[18] = second compound 0.316 µM, first compound 10 µM
[19] = second compound 1 µM, first compound 0.0316 µM
[20] = second compound 1 µM, first compound 0.1 µM
[21] = second compound 1 µM, first compound 0.316 µM
[22] = second compound 1 µM, first compound 1 µM
[23] = second compound 1 µM, first compound 3.16 µM
[24] = second compound 1 µM, first compound 10 µM
[25] = second compound 3.16 µM, first compound 0.0316 µM
[26] = second compound 3.16 µM, first compound 0.1 µM
[27] = second compound 3.16 µM, first compound 0.316 µM
[28] = second compound 3.16 µM, first compound 1 µM
[29] = second compound 3.16 µM, first compound 3.16 µM
[30] = second compound 3.16 µM, first compound 10 µM
[31] = second compound 10 µM, first compound 0.0316 µM
[32] = second compound 10 µM, first compound 0.1 µM
[33] = second compound 10 µM, first compound 0.316 µM
[34] = second compound 10 µM, first compound 1 µM
[35] = second compound 10 µM, first compound 3.16 µM
[36] = second compound 10 µM, first compound 10 µM
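Note: spheroids exposed to drugs for 7 days before viability reading.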

`C#Cc1c(F)ccc2cc(O)cc(-c3ncc4c(N5CC6CCC(C5)N6)nc(OCC56CCCN5CC(F)C6)nc4c3F)c12` (stereo unspecified) + Cc1cnc(CNC(=O)c2c(=O)c3ccc(N4CCCN(C)CC4)nc3n3c2sc2ccccc23)cn1 was tested, and the IC50 (second compound 0.0316 µM) was > 10 µM, the IC50 (second compound 0.1 µM) was > 10 µM and the IC50 (second compound 0.316 µM) was > 10 µM. The IC50 (second compound 1 µM) was > 10 µM, the IC50 (second compound 3.16 µM) was > 10 µM and the IC50 (second compound 10 µM) was < 0.0316 µM. For the same compound, the viability, T/C [1] was 93.2%, the viability, T/C [2] was 94.4% and the viability, T/C [3] was 101%. The viability, T/C [4] was 88%, the viability, T/C [5] was 98.5% and the viability, T/C [6] was 90.7%. It also gave a viability, T/C [7] of 92.9%, a viability, T/C [8] of 74.9% and a viability, T/C [9] of 76.7%. It also gave a viability, T/C [10] of 93.5%, a viability, T/C [11] of 90.8% and a viability, T/C [12] of 82.9%. It also gave a viability, T/C [13] of 72.5%, a viability, T/C [14] of 74.6% and a viability, T/C [15] of 70.4%. For the same compound, the viability, T/C [16] was 93.3%, the viability, T/C [17] was 91.8% and the viability, T/C [18] was 66.7%. For the same compound, the viability, T/C [19] was 60.7%, the viability, T/C [20] was 60.8% and the viability, T/C [21] was 61.4%. For the same compound, the viability, T/C [22] was 66.3%, the viability, T/C [23] was 67.4% and the viability, T/C [24] was 52.5%. It also gave a viability, T/C [25] of 56.4%, a viability, T/C [26] of 49.2% and a viability, T/C [27] of 49.8%. It also gave a viability, T/C [28] of 57%, a viability, T/C [29] of 50.9% and a viability, T/C [30] of 54%. It also gave a viability, T/C [31] of 36.3%, a viability, T/C [32] of 14.9% and a viability, T/C [33] of 39.6%. The viability, T/C [34] was 40.7%, the viability, T/C [35] was 36.9% and the viability, T/C [36] was 0.57%.

In the case of `CCCS(=O)(=O)Nc1ccc(F)c(C(=O)c2c[nH]c3ncc(-c4ccc(Cl)cc4)cc23)c1F` + Cc1cnc(CNC(=O)c2c(=O)c3ccc(N4CCCN(C)CC4)nc3n3c2sc2ccccc23)cn1, the IC50 (second compound 0.0316 µM) is reported as 8.29 µM, the IC50 (second compound 0.1 µM) is reported as 7.34 µM and the IC50 (second compound 0.316 µM) is reported as 6.68 µM. The IC50 (second compound 1 µM) was 5.02 µM, the IC50 (second compound 3.16 µM) was 4.25 µM and the IC50 (second compound 10 µM) was < 0.0316 µM. For the same compound, the viability, T/C [1] was 100%, the viability, T/C [2] was 90.1% and the viability, T/C [3] was 98.1%. The viability, T/C [4] was 97.5%, the viability, T/C [5] was 78.5% and the viability, T/C [6] was 44.4%. It also gave a viability, T/C [7] of 90.6%, a viability, T/C [8] of 85.5% and a viability, T/C [9] of 95.7%. It also gave a viability, T/C [10] of 79.4%, a viability, T/C [11] of 83.6% and a viability, T/C [12] of 37.5%. For the same compound, the viability, T/C [13] was 81.2%, the viability, T/C [14] was 84.6% and the viability, T/C [15] was 80.1%. The viability, T/C [16] was 71.7%, the viability, T/C [17] was 71.3% and the viability, T/C [18] was 39.5%. The viability, T/C [19] was 64.2%, the viability, T/C [20] was 65.8% and the viability, T/C [21] was 67%. For the same compound, the viability, T/C [22] was 61.5%, the viability, T/C [23] was 53.3% and the viability, T/C [24] was 43.1%. It also gave a viability, T/C [25] of 57%, a viability, T/C [26] of 50.3% and a viability, T/C [27] of 62.8%. The viability, T/C [28] was 52%, the viability, T/C [29] was 55.2% and the viability, T/C [30] was 35.8%. For the same compound, the viability, T/C [31] was 46.5%, the viability, T/C [32] was 27.8% and the viability, T/C [33] was 50.4%. The viability, T/C [34] was 46.1%, the viability, T/C [35] was 24.7% and the viability, T/C [36] was 0.21%.

Work on `Nc1ccn(C2OC(CO)C(O)C2(F)F)c(=O)n1` (stereo unspecified) + Cc1cnc(CNC(=O)c2c(=O)c3ccc(N4CCCN(C)CC4)nc3n3c2sc2ccccc23)cn1 yielded an IC50 (second compound 0.0316 µM) of 0.0787 µM, an IC50 (second compound 0.1 µM) of 0.308 µM and an IC50 (second compound 0.316 µM) of 0.068 µM. For the same compound, the IC50 (second compound 1 µM) was 0.0772 µM, the IC50 (second compound 3.16 µM) was < 0.0316 µM and the IC50 (second compound 10 µM) was < 0.0316 µM. For the same compound, the viability, T/C [1] was 58.3%, the viability, T/C [2] was 44.5% and the viability, T/C [3] was 49.4%. For the same compound, the viability, T/C [4] was 51%, the viability, T/C [5] was 47.4% and the viability, T/C [6] was 46.8%. For the same compound, the viability, T/C [7] was 60.1%, the viability, T/C [8] was 51% and the viability, T/C [9] was 53.3%. It also gave a viability, T/C [10] of 44.7%, a viability, T/C [11] of 38.6% and a viability, T/C [12] of 35.3%. For the same compound, the viability, T/C [13] was 61.2%, the viability, T/C [14] was 43.9% and the viability, T/C [15] was 43.9%. The viability, T/C [16] was 49.8%, the viability, T/C [17] was 41.6% and the viability, T/C [18] was 41.8%. The viability, T/C [19] was 59.6%, the viability, T/C [20] was 47.6% and the viability, T/C [21] was 42%. The viability, T/C [22] was 47.6%, the viability, T/C [23] was 52.2% and the viability, T/C [24] was 43%. The viability, T/C [25] was 47.9%, the viability, T/C [26] was 41.9% and the viability, T/C [27] was 42.2%. It also gave a viability, T/C [28] of 40.2%, a viability, T/C [29] of 40.9% and a viability, T/C [30] of 42.6%. For the same compound, the viability, T/C [31] was 47%, the viability, T/C [32] was 35.5% and the viability, T/C [33] was 38.9%. For the same compound, the viability, T/C [34] was 39.6%, the viability, T/C [35] was 42.7% and the viability, T/C [36] was 23.4%.
